Measurements published in patent publication US20060069132A1, “Azolecarboxamide herbicides” (priority 2004, published 2006).

What was measured:
barnyardgrass = assay: Test B pre-/postemergence herbicide test; assay type: in vivo, Echinochloa crus-galli; settings: for Plant response rating, Barnyardgrass: preemergence; for Barnyardgrass plant response rating: postemergence, visual rating, scale 0 (no effect) to 100 (complete control)
In short: (§1)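 Greenhouse pot assay with simultaneous preemergence (treated seed) and postemergence (2–18 cm seedlings) applications of surfactant-containing, non-phytotoxic solvent formulations. Response scored visually 13–15 days later on a 0–100 scale, 100 meaning complete control.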

[1] = test system: small flower umbrella sedge; assay: Test B flooded paddy test; assay type: in vivo, Cyperus difformis; settings: 1000 g ai/ha, visual rating, scale 0 to 100 (0 no effect, 100 complete control), 13 to 15 days
In short: (§2)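 Greenhouse test; postemergence application to plants at 1–4 leaves (2–18 cm); paddy species at 2 leaves; evaluated visually vs controls at 13–15 days; scale 0–100 (100 = complete control).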

lambsquarters = assay: Test B pre-/postemergence herbicide test; assay type: in vivo, Chenopodium album; settings: for Plant response rating, Lambsquarters: preemergence; for Lambsquarters plant response rating: postemergence, visual rating, scale 0 (no effect) to 100 (complete control)
In short: (§3)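 Formulation: non-phytotoxic solvent mix with surfactant. Timing: preemergence on seed and postemergence on 2–18 cm plants, applied concurrently. Readout after 13–15 d greenhouse: visual 0–100 control rating against controls.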

ducksalad = assay: Test B flooded paddy test; assay type: in vivo, Heteranthera limosa; settings: 1000 g ai/ha, visual rating, scale 0 to 100 (0 no effect, 100 complete control), 13 to 15 days
In short: as §2

wheat = assay: Test B postemergence herbicide test; assay type: in vivo, Triticum aestivum; set-up: key to Wheat plant response rating: 0 = no effect, 100 = complete control; settings: postemergence, visual rating, scale 0 (no effect) to 100 (complete control)
In short: (§4)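 Postemergence plants were sprayed with formulated test chemicals at 2 to 18 cm height (1- to 4-leaf stage); paddy species were grown to the 2-leaf stage. After 13 to 15 days in a greenhouse, injury was rated visually against untreated controls on a 0–100 scale (0 = no effect, 100 = complete control).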

corn = assay: Test B pre-/postemergence herbicide test; assay type: in vivo, Zea mays; settings: for Plant response rating, Corn: preemergence; for Corn plant response rating: postemergence, visual rating, scale 0 (no effect) to 100 (complete control)
In short: as §3

velvetleaf = assay: Test B pre-/postemergence herbicide test; assay type: in vivo, Abutilon theophrasti; settings: for Plant response rating, Velvetleaf: preemergence; for Velvetleaf plant response rating: postemergence, visual rating, scale 0 (no effect) to 100 (complete control)
In short: as §3

pigweed = assay: Test B pre-/postemergence herbicide test; assay type: in vivo, Amaranthus retroflexus; settings: for Plant response rating, Pigweed: preemergence; for Pigweed plant response rating: postemergence, visual rating, scale 0 (no effect) to 100 (complete control)
In short: as §3

large crabgrass = assay: Test B pre-/postemergence herbicide test; assay type: in vivo, Digitaria sanguinalis; settings: for Plant response rating, Crabgrass, Large: preemergence; for Crabgrass, Large plant response rating: postemergence, visual rating, scale 0 (no effect) to 100 (complete control)
In short: as §3

Surinam grass = assay: Test B pre-/postemergence herbicide test; assay type: in vivo, Urochloa decumbens; settings: for Plant response rating, Surinam Grass: preemergence; for Surinam Grass plant response rating: postemergence, visual rating, scale 0 (no effect) to 100 (complete control)
In short: as §3

giant foxtail = assay: Test B pre-/postemergence herbicide test; assay type: in vivo, Setaria faberi; settings: for Plant response rating, Foxtail, Giant: preemergence; for Foxtail, Giant plant response rating: postemergence, visual rating, scale 0 (no effect) to 100 (complete control)
In short: as §3

wild oat = assay: Test B postemergence herbicide test; assay type: in vivo, Avena fatua; settings: postemergence, visual rating, scale 0 (no effect) to 100 (complete control)
In short: as §4

blackgrass = assay: Test B postemergence herbicide test; assay type: in vivo, Alopecurus myosuroides; settings: postemergence, visual rating, scale 0 (no effect) to 100 (complete control)
In short: as §2

morningglory = assay: Test B pre-/postemergence herbicide test; assay type: in vivo, Ipomoea coccinea; settings: for Plant response rating, Morningglory: preemergence; for Morningglory plant response rating: postemergence, visual rating, scale 0 (no effect) to 100 (complete control)
In short: as §1

rice = assay: Test B flooded paddy test; assay type: in vivo, Oryza sativa; settings: 1000 g ai/ha, visual rating, scale 0 to 100 (0 no effect, 100 complete control), 13 to 15 days
In short: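 Scale 0–100: zero equals no visible effect, 100 complete control, judged by eye relative to controls. Timing: 13 to 15 days in greenhouse post-treatment. Growth stage at spraying: two leaves (paddy) or one to four leaves, 2–18 cm (postemergence).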

[2] = 500 g ai/ha, visual rating 0-100, 0 no effect, 100 complete control
[3] = 125 g ai/ha, 0 to 100 scale, 0 is no effect, 100 is complete control

CCn1nc(C(C)(C)C)cc1C(=O)Nc1cccc(SC(F)(F)F)c1 [Compound 130]
Plant response rating, Barnyardgrass (barnyardgrass; [2]): 70 | Barnyardgrass plant response rating (barnyardgrass; 125 g ai/ha): 50 | Barnyardgrass plant response rating (barnyardgrass; 500 g ai/ha): 80 | Plant response rating, Barnyardgrass (barnyardgrass; [3]): 10 | Sedge, Umbrella plant response rating [1]: 0 | Plant response rating, Lambsquarters (lambsquarters; [2]): 70 | Lambsquarters plant response rating (lambsquarters; 125 g ai/ha): 90 | Lambsquarters plant response rating (lambsquarters; 500 g ai/ha): 100 | Plant response rating, Lambsquarters (lambsquarters; [3]): 0 | Ducksalad plant response rating (ducksalad): 10 | Wheat plant response rating (wheat; 125 g ai/ha): 20 | Wheat plant response rating (wheat; 500 g ai/ha): 40 | Plant response rating, Corn (corn; [2]): 20 | Corn plant response rating (corn; 125 g ai/ha): 20 | Corn plant response rating (corn; 500 g ai/ha): 40 | Plant response rating, Corn (corn; [3]): 10 | Plant response rating, Velvetleaf (velvetleaf; [2]): 90 | Velvetleaf plant response rating (velvetleaf; 125 g ai/ha): 70 | Velvetleaf plant response rating (velvetleaf; 500 g ai/ha): 70 | Plant response rating, Velvetleaf (velvetleaf; [3]): 10 | Plant response rating, Pigweed (pigweed; [2]): 100 | Pigweed plant response rating (pigweed; 125 g ai/ha): 100 | Pigweed plant response rating (pigweed; 500 g ai/ha): 100 | Plant response rating, Pigweed (pigweed; [3]): 20 | Plant response rating, Crabgrass, Large (large crabgrass; [2]): 100 | Crabgrass, Large plant response rating (large crabgrass; 125 g ai/ha): 70 | Crabgrass, Large plant response rating (large crabgrass; 500 g ai/ha): 90 | Plant response rating, Crabgrass, Large (large crabgrass; [3]): 90 | Plant response rating, Surinam Grass (Surinam grass; [2]): 80 | Surinam Grass plant response rating (Surinam grass; 125 g ai/ha): 50 | Surinam Grass plant response rating (Surinam grass; 500 g ai/ha): 90 | Plant response rating, Surinam Grass (Surinam grass; [3]): 60 | Plant response rating, Foxtail, Giant (giant foxtail; [2]): 70 | Foxtail, Giant plant response rating (giant foxtail; 125 g ai/ha): 20 | Foxtail, Giant plant response rating (giant foxtail; 500 g ai/ha): 60 | Plant response rating, Foxtail, Giant (giant foxtail; [3]): 20 | Oat, Wild plant response rating (wild oat; 125 g ai/ha): 40 | Oat, Wild plant response rating (wild oat; 500 g ai/ha): 60 | Blackgrass plant response rating (blackgrass; 125 g ai/ha): 20 | Blackgrass plant response rating (blackgrass; 500 g ai/ha): 60 | Plant response rating, Morningglory (morningglory; [2]): 10 | Morningglory plant response rating (morningglory; 125 g ai/ha): 100 | Morningglory plant response rating (morningglory; 500 g ai/ha): 100 | Plant response rating, Morningglory (morningglory; [3]): 10 | Rice plant response rating (rice): 0

CCn1nc(C(C)(C)C)cc1C(=O)Nc1cccc(SC)c1 [Compound 131]
Plant response rating, Barnyardgrass (barnyardgrass; [2]): 90 | Barnyardgrass plant response rating (barnyardgrass; 125 g ai/ha): 10 | Barnyardgrass plant response rating (barnyardgrass; 500 g ai/ha): 50 | Plant response rating, Barnyardgrass (barnyardgrass; [3]): 70 | Sedge, Umbrella plant response rating [1]: 80 | Plant response rating, Lambsquarters (lambsquarters; [2]): 100 | Lambsquarters plant response rating (lambsquarters; 125 g ai/ha): 80 | Lambsquarters plant response rating (lambsquarters; 500 g ai/ha): 90 | Plant response rating, Lambsquarters (lambsquarters; [3]): 100 | Ducksalad plant response rating (ducksalad): 80 | Wheat plant response rating (wheat; 125 g ai/ha): 10 | Wheat plant response rating (wheat; 500 g ai/ha): 20 | Plant response rating, Corn (corn; [2]): 0 | Corn plant response rating (corn; 125 g ai/ha): 20 | Corn plant response rating (corn; 500 g ai/ha): 20 | Plant response rating, Corn (corn; [3]): 0 | Plant response rating, Velvetleaf (velvetleaf; [2]): 100 | Velvetleaf plant response rating (velvetleaf; 125 g ai/ha): 10 | Velvetleaf plant response rating (velvetleaf; 500 g ai/ha): 40 | Plant response rating, Velvetleaf (velvetleaf; [3]): 50 | Plant response rating, Pigweed (pigweed; [2]): 100 | Pigweed plant response rating (pigweed; 125 g ai/ha): 30 | Pigweed plant response rating (pigweed; 500 g ai/ha): 60 | Plant response rating, Pigweed (pigweed; [3]): 100 | Plant response rating, Crabgrass, Large (large crabgrass; [2]): 100 | Crabgrass, Large plant response rating (large crabgrass; 125 g ai/ha): 20 | Crabgrass, Large plant response rating (large crabgrass; 500 g ai/ha): 30 | Plant response rating, Crabgrass, Large (large crabgrass; [3]): 50 | Plant response rating, Surinam Grass (Surinam grass; [2]): 60 | Surinam Grass plant response rating (Surinam grass; 125 g ai/ha): 20 | Surinam Grass plant response rating (Surinam grass; 500 g ai/ha): 60 | Plant response rating, Surinam Grass (Surinam grass; [3]): 10 | Plant response rating, Foxtail, Giant (giant foxtail; [2]): 70 | Foxtail, Giant plant response rating (giant foxtail; 125 g ai/ha): 20 | Foxtail, Giant plant response rating (giant foxtail; 500 g ai/ha): 30 | Plant response rating, Foxtail, Giant (giant foxtail; [3]): 10 | Oat, Wild plant response rating (wild oat; 125 g ai/ha): 20 | Oat, Wild plant response rating (wild oat; 500 g ai/ha): 20 | Blackgrass plant response rating (blackgrass; 125 g ai/ha): 10 | Blackgrass plant response rating (blackgrass; 500 g ai/ha): 20 | Plant response rating, Morningglory (morningglory; [2]): 30 | Morningglory plant response rating (morningglory; 125 g ai/ha): 20 | Morningglory plant response rating (morningglory; 500 g ai/ha): 60 | Plant response rating, Morningglory (morningglory; [3]): 10 | Rice plant response rating (rice): 60

CCn1nc(C(C)(C)C)cc1C(=O)Nc1cccc(C(N)=O)n1 [Compound 162, 6-[[[3-(1,1-dimethylethyl)-1-ethyl-1H-pyrazol-5-yl]carbonyl]amino]-2-pyridinecarboxamide]
Plant response rating, Barnyardgrass (barnyardgrass; [2]): 100 | Barnyardgrass plant response rating (barnyardgrass; 125 g ai/ha): 0 | Barnyardgrass plant response rating (barnyardgrass; 500 g ai/ha): 30 | Plant response rating, Barnyardgrass (barnyardgrass; [3]): 100 | Sedge, Umbrella plant response rating [1]: 80 | Plant response rating, Lambsquarters (lambsquarters; [2]): 100 | Lambsquarters plant response rating (lambsquarters; 125 g ai/ha): 80 | Lambsquarters plant response rating (lambsquarters; 500 g ai/ha): 90 | Plant response rating, Lambsquarters (lambsquarters; [3]): 100 | Ducksalad plant response rating (ducksalad): 80 | Wheat plant response rating (wheat; 500 g ai/ha): 10 | Plant response rating, Corn (corn; [2]): 80 | Corn plant response rating (corn; 125 g ai/ha): 0 | Corn plant response rating (corn; 500 g ai/ha): 0 | Plant response rating, Corn (corn; [3]): 30 | Plant response rating, Velvetleaf (velvetleaf; [2]): 100 | Velvetleaf plant response rating (velvetleaf; 125 g ai/ha): 60 | Velvetleaf plant response rating (velvetleaf; 500 g ai/ha): 80 | Plant response rating, Velvetleaf (velvetleaf; [3]): 90 | Plant response rating, Pigweed (pigweed; [2]): 100 | Pigweed plant response rating (pigweed; 125 g ai/ha): 40 | Pigweed plant response rating (pigweed; 500 g ai/ha): 80 | Plant response rating, Pigweed (pigweed; [3]): 100 | Plant response rating, Crabgrass, Large (large crabgrass; [2]): 100 | Crabgrass, Large plant response rating (large crabgrass; 125 g ai/ha): 20 | Crabgrass, Large plant response rating (large crabgrass; 500 g ai/ha): 40 | Plant response rating, Crabgrass, Large (large crabgrass; [3]): 100 | Plant response rating, Surinam Grass (Surinam grass; [2]): 100 | Surinam Grass plant response rating (Surinam grass; 125 g ai/ha): 0 | Surinam Grass plant response rating (Surinam grass; 500 g ai/ha): 40 | Plant response rating, Surinam Grass (Surinam grass; [3]): 90 | Plant response rating, Foxtail, Giant (giant foxtail; [2]): 100 | Foxtail, Giant plant response rating (giant foxtail; 125 g ai/ha): 20 | Foxtail, Giant plant response rating (giant foxtail; 500 g ai/ha): 30 | Plant response rating, Foxtail, Giant (giant foxtail; [3]): 100 | Oat, Wild plant response rating (wild oat; 125 g ai/ha): 20 | Oat, Wild plant response rating (wild oat; 500 g ai/ha): 40 | Blackgrass plant response rating (blackgrass; 125 g ai/ha): 20 | Blackgrass plant response rating (blackgrass; 500 g ai/ha): 50 | Plant response rating, Morningglory (morningglory; [2]): 80 | Morningglory plant response rating (morningglory; 125 g ai/ha): 0 | Morningglory plant response rating (morningglory; 500 g ai/ha): 60 | Plant response rating, Morningglory (morningglory; [3]): 20 | Rice plant response rating (rice): 80
